According to ChEMBL document CHEMBL1147997, “Design, synthesis and biological evaluation of new oligopyrrole carboxamides linked with tricyclic DNA-intercalators as potential DNA ligands or topoisomerase inhibitors” (2007):
Active and inactive are the calls of the source. The rule behind the calls is not given here.

Experiments:
[1] = molecular target: T1, DNA topoisomerase 1 (Homo sapiens) (UniProt P11387); assay: Inhibition of human topoisomerase 1 by DNA relaxation assay
T1 sequence (whole entry): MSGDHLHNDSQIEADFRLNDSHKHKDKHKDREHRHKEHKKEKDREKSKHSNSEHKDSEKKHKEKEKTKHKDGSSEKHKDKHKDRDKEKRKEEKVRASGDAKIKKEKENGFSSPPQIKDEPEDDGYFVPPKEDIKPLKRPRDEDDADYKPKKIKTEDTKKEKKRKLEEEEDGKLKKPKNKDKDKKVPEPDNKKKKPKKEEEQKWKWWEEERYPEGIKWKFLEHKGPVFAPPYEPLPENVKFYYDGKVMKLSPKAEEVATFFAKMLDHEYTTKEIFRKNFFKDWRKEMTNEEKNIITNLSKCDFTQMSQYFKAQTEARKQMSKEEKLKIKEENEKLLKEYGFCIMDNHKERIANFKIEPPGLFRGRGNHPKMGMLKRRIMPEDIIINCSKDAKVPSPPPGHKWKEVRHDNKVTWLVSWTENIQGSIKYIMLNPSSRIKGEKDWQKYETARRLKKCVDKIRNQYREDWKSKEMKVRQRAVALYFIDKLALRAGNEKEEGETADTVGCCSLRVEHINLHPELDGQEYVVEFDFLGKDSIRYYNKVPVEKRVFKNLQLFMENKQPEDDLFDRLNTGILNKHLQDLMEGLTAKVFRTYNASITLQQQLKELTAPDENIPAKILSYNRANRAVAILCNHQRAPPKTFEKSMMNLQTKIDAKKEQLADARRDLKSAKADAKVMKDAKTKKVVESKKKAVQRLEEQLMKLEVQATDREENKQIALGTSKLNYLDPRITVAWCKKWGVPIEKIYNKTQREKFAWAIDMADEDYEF

[2] = test system: MCF7; assay: Antitumor activity against human MCF7 cells at 0.1 uM assessed as cell growth; type: functional
[3] = test system: NCI-H460; assay: Antitumor activity against human NCI-H460 cells at 0.1 uM assessed as cell growth; type: functional
[4] = test system: SF-268; assay: Antitumor activity against human SF268 cells at 0.1 uM assessed as cell growth; type: functional
[5] = test system: MDA-MB-435; assay: Growth inhibition of human MDA-MB-435 cells; type: functional
[6] = Growth inhibition of human NCI-H322 M cells; type: functional; details: NCI-H322M
[7] = test system: UACC-257; assay: Growth inhibition of human UACC257 cells; type: functional

| SMILES | Activity [1] | Activity [2] [%] | Activity [3] [%] | Activity [4] [%] | further results |
| --- | --- | --- | --- | --- | --- |
| CN(C)CCCNC(=O)c1cc(NC(=O)CCNC(=O)c2ccc3c(c2)C(=O)c2ccccc2C3=O)cn1C | – | 32 | 103 | 113 | – |
| CN(C)CCCNC(=O)c1cc(NC(=O)c2cc(NC(=O)CCCN3C(=O)c4cccc5cccc(c45)C3=O)cn2C)cn1C | inactive | – | – | – | – |
| CN(C)CCCNC(=O)c1cc(NC(=O)c2cc(NC(=O)CCCN3c4ccccc4C=Cc4ccccc43)cn2C)cn1C | – | – | – | – | GI50 [5]: 57.5 µM |
| CN(C)CCCNC(=O)c1cc(NC(=O)c2cc(NC(=O)CCNS(=O)(=O)c3ccc4c(c3)C(=O)c3ccccc3C4=O)cn2C)cn1C | – | 27 | 84 | 98 | GI50 [6]: 35.7 µM |
| CN(C)CCCNC(=O)c1cc(NC(=O)c2cc(NC(=O)CCCn3c4ccccc4c(=O)c4ccccc43)cn2C)cn1C | inactive | 48 | 47 | – | – |
| CN(C)CCCNC(=O)c1cc(NC(=O)c2cc(NC(=O)CCn3c4ccccc4c(=O)c4ccccc43)cn2C)cn1C | – | – | 52 | – | – |
| CN(C)CCCNC(=O)c1cc(NC(=O)CCNS(=O)(=O)c2ccc3c(c2)C(=O)c2ccccc2C3=O)cn1C | – | 1 | 1 | 2 | GI50 [7]: 54.4 µM |

More lines, main results first:

| Activity [1] | SMILES | Activity [2] [%] | Activity [3] [%] | Activity [4] [%] | further results |
| --- | --- | --- | --- | --- | --- |
| inactive | CN(C)CCCNC(=O)c1cc(NC(=O)c2cc(NC(=O)CCCN3C(=O)c4cccc5cc([N+](=O)[O-])cc(c45)C3=O)cn2C)cn1C | – | – | – | – |
| inactive | CN(C)CCCNC(=O)c1cc(NC(=O)c2cc(NC(=O)CCNC(=O)c3c4ccccc4nc4ccccc34)cn2C)cn1C | – | – | – | – |
| inactive | CN(C)CCCNC(=O)c1cc(NC(=O)c2cc(NC(=O)Cn3c4ccccc4c(=O)c4ccccc43)cn2C)cn1C | – | – | – | – |
